Data published in patent US20260234129A1, “NOVEL IMIDAZOLE DERIVATIVE AND USE THEREOF” (PELEMED CO., LTD., priority 2023, published 2026).

Experiments:
Experiment in all cases: scanMax kinase panel (Eurofins)
Type in all cases: binding
[1] = target: T1, ABL1(E255K)-phosphorylated (Homo sapiens, UniProt P00519, E255K); conditions: read-out: % control
T1 construct: purchased Eurofins
Procedure: (§1) The following assay method was performed to evaluate the inhibitory activities of a compound according to the present invention with respect to various enzymes. […] The compound was applied to the enzyme at a concentration of 1 μM, dissolved in DMSO, and the % control was determined according to Equation 1 below.
(§2) Here, the positive control refers to a compound corresponding to 0% control, and the negative control refers to a compound corresponding to 100% control.

[2] = target: T2, ABL1(F317I)-phosphorylated (Homo sapiens, UniProt P00519, F317I); conditions: read-out: % control
T2 construct: purchased Eurofins
Procedure: as §1, §2

[3] = target: T3, ABL1(F317L)-phosphorylated (Homo sapiens, UniProt P00519, F317L); conditions: read-out: % control
T3 construct: purchased Eurofins
Procedure: as §1, §2

[4] = target: T4, ABL1(T315I)-nonphosphorylated (Homo sapiens, UniProt P00519, T315I); conditions: read-out: % control
T4 construct: purchased Eurofins
Procedure: as §1, §2

[5] = target: T5, ABL1(T315I)-phosphorylated (Homo sapiens, UniProt P00519, T315I); conditions: read-out: % control
T5 construct: purchased Eurofins
Procedure: as §1, §2

[6] = target: T6, ABL1(Y253F)-phosphorylated (Homo sapiens, UniProt P00519, Y253F); conditions: read-out: % control
T6 construct: purchased Eurofins
Procedure: as §1, §2

ABL1-phosphorylated = target: T7, ABL1-phosphorylated (Homo sapiens, UniProt P00519); conditions: read-out: % control
T7 construct: purchased Eurofins
Procedure: as §1, §2

AURKB = target: T8, AURKB (Homo sapiens, UniProt Q96GD4); conditions: read-out: % control
T8 construct: purchased Eurofins
Procedure: as §1, §2

AXL = target: T9, AXL (Homo sapiens, UniProt P30530); conditions: read-out: % control
T9 construct: purchased Eurofins
Procedure: as §1, §2

CDK2 = target: T10, CDK2 (Homo sapiens, UniProt P24941); conditions: CDK2, 1 μM; read-out: % control
T10 construct: purchased Eurofins
Procedure: as §1, §2

CDK4-cyclinD3 = target: T11, CDK4-cyclinD3 (Homo sapiens, UniProt P11802); conditions: CDK4-cyclinD3, 1 μM; read-out: % control
T11 construct: purchased Eurofins scanMax® kinase panel
T11 sequence (P11802 whole entry): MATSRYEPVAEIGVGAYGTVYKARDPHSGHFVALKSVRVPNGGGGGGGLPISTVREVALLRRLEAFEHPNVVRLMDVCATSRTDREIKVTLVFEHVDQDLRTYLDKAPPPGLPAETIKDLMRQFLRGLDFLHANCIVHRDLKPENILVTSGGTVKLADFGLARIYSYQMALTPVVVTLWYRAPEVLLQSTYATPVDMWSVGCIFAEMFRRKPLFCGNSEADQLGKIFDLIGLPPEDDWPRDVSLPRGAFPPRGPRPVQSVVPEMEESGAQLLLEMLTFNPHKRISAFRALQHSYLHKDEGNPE
T11 sequence (P30281 whole entry partner): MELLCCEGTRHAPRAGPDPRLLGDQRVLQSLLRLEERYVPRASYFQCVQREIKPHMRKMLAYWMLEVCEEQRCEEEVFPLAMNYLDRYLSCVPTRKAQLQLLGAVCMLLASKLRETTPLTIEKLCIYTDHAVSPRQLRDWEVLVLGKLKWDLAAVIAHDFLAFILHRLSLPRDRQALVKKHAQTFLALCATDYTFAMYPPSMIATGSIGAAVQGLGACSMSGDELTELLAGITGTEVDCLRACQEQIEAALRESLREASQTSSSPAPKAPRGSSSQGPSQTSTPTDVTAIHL
Procedure: as §1, §2

CDK5 = target: T12, CDK5 (Homo sapiens, UniProt Q00535); conditions: CDK5, 1 μM; read-out: % control
T12 construct: purchased Eurofins scanMax® kinase panel
T12 sequence (Q00535 whole entry): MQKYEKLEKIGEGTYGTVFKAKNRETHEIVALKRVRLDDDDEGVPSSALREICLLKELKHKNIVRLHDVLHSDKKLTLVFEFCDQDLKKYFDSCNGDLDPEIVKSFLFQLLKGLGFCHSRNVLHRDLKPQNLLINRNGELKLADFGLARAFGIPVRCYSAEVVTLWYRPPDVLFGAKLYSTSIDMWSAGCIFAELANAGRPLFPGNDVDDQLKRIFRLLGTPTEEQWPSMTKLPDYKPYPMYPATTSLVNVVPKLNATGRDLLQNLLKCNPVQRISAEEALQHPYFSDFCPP
Procedure: as §1, §2

CDK7 = target: T13, CDK7 (Homo sapiens, UniProt P50613); conditions: CDK7, 1 μM; read-out: % control
T13 construct: purchased Eurofins scanMax® kinase panel
T13 sequence (P50613 whole entry): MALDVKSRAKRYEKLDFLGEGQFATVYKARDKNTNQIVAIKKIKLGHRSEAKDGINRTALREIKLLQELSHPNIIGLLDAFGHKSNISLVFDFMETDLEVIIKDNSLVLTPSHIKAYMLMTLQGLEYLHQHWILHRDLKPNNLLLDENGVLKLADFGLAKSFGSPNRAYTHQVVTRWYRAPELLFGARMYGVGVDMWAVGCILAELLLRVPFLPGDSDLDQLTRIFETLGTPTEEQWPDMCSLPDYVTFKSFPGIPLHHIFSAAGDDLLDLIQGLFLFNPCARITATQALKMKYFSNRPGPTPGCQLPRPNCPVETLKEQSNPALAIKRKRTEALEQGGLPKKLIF
Procedure: as §1, §2

DYRK1B = target: T14, DYRK1B (Homo sapiens, UniProt Q9Y463); conditions: read-out: % control
T14 construct: purchased Eurofins scanMax® kinase panel
T14 sequence (Q9Y463 whole entry): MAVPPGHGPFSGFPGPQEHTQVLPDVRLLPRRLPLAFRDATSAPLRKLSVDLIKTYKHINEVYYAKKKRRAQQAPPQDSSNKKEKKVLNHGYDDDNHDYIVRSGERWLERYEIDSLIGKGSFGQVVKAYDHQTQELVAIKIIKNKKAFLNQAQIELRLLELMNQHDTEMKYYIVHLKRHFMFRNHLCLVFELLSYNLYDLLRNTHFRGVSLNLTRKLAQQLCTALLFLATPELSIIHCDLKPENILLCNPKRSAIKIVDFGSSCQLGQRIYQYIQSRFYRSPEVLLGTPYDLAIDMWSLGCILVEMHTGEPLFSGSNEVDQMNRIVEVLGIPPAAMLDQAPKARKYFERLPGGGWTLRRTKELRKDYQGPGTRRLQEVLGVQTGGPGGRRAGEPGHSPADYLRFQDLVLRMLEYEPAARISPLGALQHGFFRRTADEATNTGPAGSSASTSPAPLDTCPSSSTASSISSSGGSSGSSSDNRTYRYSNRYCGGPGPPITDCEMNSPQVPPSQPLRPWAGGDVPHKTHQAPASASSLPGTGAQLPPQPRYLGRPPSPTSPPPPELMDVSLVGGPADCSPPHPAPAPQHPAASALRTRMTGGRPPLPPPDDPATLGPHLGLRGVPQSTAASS
Procedure: as §1, §2

DYRKIA = target: T15, DYRKIA (Homo sapiens, UniProt Q13627); conditions: read-out: % control
T15 construct: purchased Eurofins scanMax® kinase panel
Procedure: as §1, §2

ERK1 = target: T16, ERK1 (Homo sapiens, UniProt P27361); conditions: ERK1, 1 μM; read-out: % control
T16 construct: purchased Eurofins scanMax® kinase panel
Procedure: as §1, §2

ERK8 = target: T17, ERK8 (Homo sapiens, UniProt Q8TD08); conditions: ERK8, 1 μM; read-out: % control
T17 construct: purchased Eurofins scanMax® kinase panel
T17 sequence (Q8TD08 whole entry): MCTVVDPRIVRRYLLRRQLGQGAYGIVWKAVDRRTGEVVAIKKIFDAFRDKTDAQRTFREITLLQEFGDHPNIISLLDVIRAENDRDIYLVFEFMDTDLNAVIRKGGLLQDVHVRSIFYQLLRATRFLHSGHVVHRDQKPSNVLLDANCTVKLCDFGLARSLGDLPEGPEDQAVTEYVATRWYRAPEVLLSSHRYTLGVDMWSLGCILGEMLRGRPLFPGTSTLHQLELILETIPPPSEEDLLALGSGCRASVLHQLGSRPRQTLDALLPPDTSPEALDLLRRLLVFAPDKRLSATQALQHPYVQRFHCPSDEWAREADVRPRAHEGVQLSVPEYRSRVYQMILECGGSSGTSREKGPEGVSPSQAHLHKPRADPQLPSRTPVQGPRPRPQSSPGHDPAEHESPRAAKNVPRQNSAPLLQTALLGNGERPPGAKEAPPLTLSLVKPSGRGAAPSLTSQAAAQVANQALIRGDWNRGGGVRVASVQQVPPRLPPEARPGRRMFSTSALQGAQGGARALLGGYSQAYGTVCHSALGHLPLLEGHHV
Procedure: as §1, §2

GSK3B = target: T18, GSK3B (Homo sapiens, UniProt P49841); conditions: read-out: % control
T18 construct: purchased Eurofins scanMax® kinase panel
T18 sequence (P49841 whole entry): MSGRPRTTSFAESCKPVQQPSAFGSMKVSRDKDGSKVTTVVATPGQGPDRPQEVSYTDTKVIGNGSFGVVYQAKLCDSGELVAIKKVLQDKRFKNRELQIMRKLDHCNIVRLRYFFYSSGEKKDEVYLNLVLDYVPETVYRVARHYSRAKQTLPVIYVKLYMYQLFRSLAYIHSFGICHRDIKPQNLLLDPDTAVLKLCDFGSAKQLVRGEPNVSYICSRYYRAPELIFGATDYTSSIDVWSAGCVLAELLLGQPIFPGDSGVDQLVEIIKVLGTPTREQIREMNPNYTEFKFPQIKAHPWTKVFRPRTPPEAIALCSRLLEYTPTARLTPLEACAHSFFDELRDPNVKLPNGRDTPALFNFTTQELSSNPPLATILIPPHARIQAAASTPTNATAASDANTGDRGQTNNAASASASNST
Procedure: as §1, §2

HIPK2 = target: T19, HIPK2 (Homo sapiens, UniProt Q9H2X6); conditions: HIPK2, 1 μM; read-out: % control
T19 construct: purchased Eurofins scanMax® kinase panel
Procedure: as §1, §2

HIPK3 = target: T20, HIPK3 (Homo sapiens, UniProt Q9H422); conditions: HIPK3, 1 μM; read-out: % control
T20 construct: purchased Eurofins
Procedure: as §1, §2

[7] = target: T21, JAK2(JH1domain-catalytic) (Homo sapiens, UniProt O60674); conditions: read-out: % control
T21 construct: JAK2(JH1domain-catalytic); purchased Eurofins
T21 sequence (O60674 849-1124 limits assumed): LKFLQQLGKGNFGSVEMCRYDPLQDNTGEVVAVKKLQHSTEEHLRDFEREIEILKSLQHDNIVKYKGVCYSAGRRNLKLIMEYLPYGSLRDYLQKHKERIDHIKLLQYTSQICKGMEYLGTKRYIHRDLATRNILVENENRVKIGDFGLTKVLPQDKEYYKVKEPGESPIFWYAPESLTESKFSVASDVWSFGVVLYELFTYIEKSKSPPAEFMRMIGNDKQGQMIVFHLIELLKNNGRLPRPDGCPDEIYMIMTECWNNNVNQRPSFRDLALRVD
Procedure: as §1, §2

KIT(A829P) = target: T22, KIT(A829P) (Homo sapiens, UniProt P10721, A829P); conditions: read-out: % control
T22 construct: purchased Eurofins
T22 sequence (P10721 26-976 A829P): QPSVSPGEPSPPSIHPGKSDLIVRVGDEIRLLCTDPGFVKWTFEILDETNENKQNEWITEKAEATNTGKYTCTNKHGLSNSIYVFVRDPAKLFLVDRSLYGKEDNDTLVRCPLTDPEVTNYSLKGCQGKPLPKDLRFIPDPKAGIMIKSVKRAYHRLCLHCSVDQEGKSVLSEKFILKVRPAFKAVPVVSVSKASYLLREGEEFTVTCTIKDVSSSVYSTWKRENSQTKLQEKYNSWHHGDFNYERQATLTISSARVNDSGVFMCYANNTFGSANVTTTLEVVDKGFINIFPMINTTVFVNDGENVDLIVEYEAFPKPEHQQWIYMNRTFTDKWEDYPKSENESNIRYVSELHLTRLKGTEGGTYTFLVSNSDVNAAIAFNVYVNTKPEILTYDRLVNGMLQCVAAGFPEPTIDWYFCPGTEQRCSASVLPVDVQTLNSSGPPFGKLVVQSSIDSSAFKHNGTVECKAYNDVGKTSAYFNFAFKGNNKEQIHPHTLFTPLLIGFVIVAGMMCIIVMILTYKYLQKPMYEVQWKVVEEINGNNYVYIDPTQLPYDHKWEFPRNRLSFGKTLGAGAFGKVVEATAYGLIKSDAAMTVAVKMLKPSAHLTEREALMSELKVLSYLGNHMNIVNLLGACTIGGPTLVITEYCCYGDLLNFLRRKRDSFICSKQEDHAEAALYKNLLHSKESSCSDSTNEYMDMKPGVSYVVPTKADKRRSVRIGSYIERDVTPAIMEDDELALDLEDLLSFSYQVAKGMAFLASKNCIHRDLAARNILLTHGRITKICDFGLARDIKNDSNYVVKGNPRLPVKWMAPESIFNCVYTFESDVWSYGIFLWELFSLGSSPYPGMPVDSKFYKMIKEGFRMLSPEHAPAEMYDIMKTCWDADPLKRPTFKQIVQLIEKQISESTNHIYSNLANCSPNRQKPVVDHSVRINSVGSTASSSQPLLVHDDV
Procedure: as §1, §2

KIT(D816V) = target: T23, KIT(D816V) (Homo sapiens, UniProt P10721, D816V); conditions: read-out: % control
T23 construct: purchased Eurofins
T23 sequence (P10721 26-976 D816V): as the sequence (P10721 26-976 A829P) above, with D791V, P804A counted along it
Procedure: as §1, §2

KIT(V559D) = target: T24, KIT(V559D) (Homo sapiens, UniProt P10721, V559D); conditions: read-out: % control
T24 construct: purchased Eurofins
T24 sequence (P10721 26-976 V559D): as the sequence (P10721 26-976 A829P) above, with V534D, P804A counted along it
Procedure: as §1, §2

KIT(V559D, V654A) = target: T25, KIT(V559D, V654A) (Homo sapiens, UniProt P10721, V559D/V654A); conditions: read-out: % control
T25 construct: purchased Eurofins
T25 sequence (P10721 26-976 V559D/V654A): as the sequence (P10721 26-976 A829P) above, with V534D, V629A, P804A counted along it
Procedure: as §1, §2

MEK3 = target: T26, MEK3 (Homo sapiens, UniProt P46734); conditions: MEK3, 1 μM; read-out: % control
T26 construct: purchased Eurofins
Procedure: as §1, §2

MEK4 = target: T27, MEK4 (Homo sapiens, UniProt P45985); conditions: MEK4, 1 μM; read-out: % control
T27 construct: purchased Eurofins
T27 sequence (P45985 whole entry): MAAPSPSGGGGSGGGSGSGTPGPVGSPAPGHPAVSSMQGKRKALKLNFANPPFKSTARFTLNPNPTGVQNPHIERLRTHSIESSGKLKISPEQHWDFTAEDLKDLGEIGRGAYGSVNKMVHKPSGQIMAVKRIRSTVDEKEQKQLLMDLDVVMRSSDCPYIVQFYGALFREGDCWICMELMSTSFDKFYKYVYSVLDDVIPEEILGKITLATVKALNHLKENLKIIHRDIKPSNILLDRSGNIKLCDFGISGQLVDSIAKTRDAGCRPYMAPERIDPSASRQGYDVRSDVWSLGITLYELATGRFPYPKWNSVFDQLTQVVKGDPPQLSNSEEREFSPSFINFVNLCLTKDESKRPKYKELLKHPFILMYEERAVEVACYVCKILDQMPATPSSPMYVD
Procedure: as §1, §2

MEK5 = target: T28, MEK5 (Homo sapiens, UniProt Q13163); conditions: MEK5, 1 μM; read-out: % control
T28 construct: purchased Eurofins scanMax kinase panel
Procedure: as §1, §2

MEK6 = target: T29, MEK6 (Homo sapiens, UniProt P52564); conditions: MEK6, 1 μM; read-out: % control
T29 construct: purchased Eurofins scanMax kinase panel
T29 sequence (P52564 whole entry): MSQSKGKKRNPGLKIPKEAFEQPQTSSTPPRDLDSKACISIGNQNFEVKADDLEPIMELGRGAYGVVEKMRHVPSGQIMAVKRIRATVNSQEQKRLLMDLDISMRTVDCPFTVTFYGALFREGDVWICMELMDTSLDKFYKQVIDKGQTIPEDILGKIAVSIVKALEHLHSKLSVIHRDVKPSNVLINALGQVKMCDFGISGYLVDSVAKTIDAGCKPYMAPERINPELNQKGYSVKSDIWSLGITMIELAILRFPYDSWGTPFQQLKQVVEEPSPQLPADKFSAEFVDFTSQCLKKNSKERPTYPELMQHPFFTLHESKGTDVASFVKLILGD
Procedure: as §1, §2

MEKI = target: T30, MEKI (Homo sapiens, UniProt Q02750); conditions: read-out: % control
T30 construct: purchased Eurofins
Procedure: as §1, §2

PAK3 = target: T31, PAK3 (Homo sapiens, UniProt O75914); conditions: PAK3, 1 μM; read-out: % control
T31 construct: purchased Eurofins scanMax kinase panel
Procedure: as §1, §2

PAK5 = conditions: PAK5, 1 μM
Procedure: as §1, §2

TRKA = target: T32, TRKA (Homo sapiens, UniProt P04629); conditions: read-out: % control
T32 construct: purchased Eurofins scanMax kinase panel
Procedure: as §1, §2

TRKB = target: T33, TRKB (Homo sapiens, UniProt Q16620); conditions: read-out: % control
T33 construct: purchased Eurofins scanMax kinase panel
Procedure: as §1, §2

What does the source list for `COc1ccc2nc(-c3n[nH]c4ccc(C(=O)N[C@H]5CC[C@H](N)C5)cc34)[nH]c2c1` [Example 32, N-((1S,3S)-3-aminocyclopentyl)-3-(6-methoxy-1H-benzo[d]imidazol-2-yl)-1H-indazole-5-carboxamide]?
remaining binding at 1 µM [1]: < 10%; remaining binding at 1 µM [2]: < 10%; remaining binding at 1 µM [3]: < 10%; remaining binding at 1 µM [4]: < 10%; remaining binding at 1 µM [5]: < 10%; remaining binding at 1 µM [6]: < 10%; remaining binding at 1 µM (ABL1-phosphorylated): < 10%; remaining binding at 1 µM (AURKB): < 10%; remaining binding at 1 µM (AXL): < 10%; remaining binding at 1 µM (CDK2): < 10%; remaining binding at 1 µM (CDK4-cyclinD3): < 10%; remaining binding at 1 µM (CDK5): < 10%; remaining binding at 1 µM (CDK7): < 10%; remaining binding at 1 µM (DYRK1B): < 10%; remaining binding at 1 µM (DYRKIA): < 10%; remaining binding at 1 µM (ERK1): < 10%; remaining binding at 1 µM (ERK8): < 10%; remaining binding at 1 µM (GSK3B): < 10%; remaining binding at 1 µM (HIPK2): < 10%; remaining binding at 1 µM (HIPK3): < 10%; remaining binding at 1 µM [7]: < 10%; remaining binding at 1 µM (KIT(A829P)): < 10%; remaining binding at 1 µM (KIT(D816V)): < 10%; remaining binding at 1 µM (KIT(V559D)): < 10%; remaining binding at 1 µM (KIT(V559D, V654A)): < 10%; remaining binding at 1 µM (MEK3): < 10%; remaining binding at 1 µM (MEK4): < 10%; remaining binding at 1 µM (MEK5): < 10%; remaining binding at 1 µM (MEK6): < 10%; remaining binding at 1 µM (MEKI): < 10%; remaining binding at 1 µM (PAK3): < 10%; % control (PAK5): less than 10 % control; remaining binding at 1 µM (TRKA): < 10%; remaining binding at 1 µM (TRKB): < 10%
